No end group written: not given here.
Tested on: Pseudomonas aeruginosa ATCC 9027
Assay: Antimicrobial assay I, MIC by OD measurement
Format: cell-based
Conditions: 37° C. for 24 hours, absorbance 620 nm

Substance	paerug9027 (MIC)
FAKLLAKLAKKSL-NH2 [P127]	25 µg/mL
FAKKLAKKLAKAAL-NH2 [P76, FAKKLAKKLAKAAL-NH2]	100 µg/mL
VALALKALKKL-NH2 [P180]	> (> indicates greater than 200 μg/mL)
FAKLLAKKLL-NH2 [P57]	200 µg/mL
FAKLLFKALKKAL-NH2 [P112, FAKLLFKALKKAL-NH2]	200 µg/mL
FAKLA-NH2 [P128, FAKLA-NH2]	100 µg/mL
FAKLLAKLAKKFAL-NH2 [P120, FAKLLAKLAKKFAL-NH2]	200 µg/mL
FALALKLAKKL-NH2 [P178]	100 µg/mL

Tested on: Staphylococcus aureus ATCC 6538
Assay: Antimicrobial assay I, MIC by OD measurement
Format: cell-based
Conditions: 37° C. for 24 hours, absorbance 620 nm

Substance	staph6538 (MIC)
FAKLLAKLAKKSL-NH2 [P127]	100 µg/mL
FAKKLAKKLAKAAL-NH2 [P76, FAKKLAKKLAKAAL-NH2]	10 µg/mL
VALALKALKKL-NH2 [P180]	200 µg/mL
FAKLLAKKLL-NH2 [P57]	100 µg/mL
FAKLLFKALKKAL-NH2 [P112, FAKLLFKALKKAL-NH2]	50 µg/mL
FAKLA-NH2 [P128, FAKLA-NH2]	> (> indicates greater than 200 μg/mL)
FAKLLAKLAKKFAL-NH2 [P120, FAKLLAKLAKKFAL-NH2]	50 µg/mL
FALALKLAKKL-NH2 [P178]	200 µg/mL

Tested on: yeast (Saccharomyces cerevisiae)
Assay: Antimicrobial assay I, yeast assay in RPMI 1640
Format: cell-based
Conditions: RPMI 1640 media

Substance	yeast (MIC or MFC)
FAKLLAKLAKKSL-NH2 [P127]	100 µg/mL
FAKKLAKKLAKAAL-NH2 [P76, FAKKLAKKLAKAAL-NH2]	200 µg/mL
VALALKALKKL-NH2 [P180]	> (> indicates greater than 200 μg/mL)
FAKLLAKKLL-NH2 [P57]	200 µg/mL
FAKLLFKALKKAL-NH2 [P112, FAKLLFKALKKAL-NH2]	100 µg/mL
FAKLA-NH2 [P128, FAKLA-NH2]	200 µg/mL
FAKLLAKLAKKFAL-NH2 [P120, FAKLLAKLAKKFAL-NH2]	200 µg/mL
FALALKLAKKL-NH2 [P178]	> (> indicates greater than 200 μg/mL)

Tested on: BMKC
Assay: Anti-cancer assay, MTT, LD50
Format: cell-based
Conditions: BMKC cloned melanoma line, 24 hours with peptide
Source text: (§1) Numbers are LD50 values (μg/mL).

Substance	LD50 BMKC
FAKLLAKLAKKSL-NH2 [P127]	535 µg/mL
FAKKLAKKLAKAAL-NH2 [P76, FAKKLAKKLAKAAL-NH2]	750 µg/mL
VALALKALKKL-NH2 [P180]	770 µg/mL
FAKLLAKKLL-NH2 [P57]	740 µg/mL
FAKLLFKALKKAL-NH2 [P112, FAKLLFKALKKAL-NH2]	445 µg/mL
FAKLA-NH2 [P128, FAKLA-NH2]	330 µg/mL
FAKLLAKLAKKFAL-NH2 [P120, FAKLLAKLAKKFAL-NH2]	660 µg/mL
FALALKLAKKL-NH2 [P178]	640 µg/mL

Tested on: H1299
Assay: Anti-cancer assay, MTT, LD50
Format: cell-based
Conditions: 24 hours with peptide, lung large cell carcinoma
Source text: as §1

Substance	H1299 LD50
FAKLLAKLAKKSL-NH2 [P127]	770 µg/mL
FAKKLAKKLAKAAL-NH2 [P76, FAKKLAKKLAKAAL-NH2]	860 µg/mL
VALALKALKKL-NH2 [P180]	> (> indicates greater than 1000)
FAKLLAKKLL-NH2 [P57]	> (> indicates greater than 1000)
FAKLLFKALKKAL-NH2 [P112, FAKLLFKALKKAL-NH2]	470 µg/mL
FAKLA-NH2 [P128, FAKLA-NH2]	> (> indicates greater than 1000)
FAKLLAKLAKKFAL-NH2 [P120, FAKLLAKLAKKFAL-NH2]	620 µg/mL
FALALKLAKKL-NH2 [P178]	> (> indicates greater than 1000)

Tested on: HeLaS3
Assay: Anti-cancer assay, MTT, LD50
Format: cell-based
Conditions: 24 hours with peptide, cervical carcinoma
Source text: as §1

Substance	HeLaS3 LD50
FAKLLAKLAKKSL-NH2 [P127]	610 µg/mL
FAKKLAKKLAKAAL-NH2 [P76, FAKKLAKKLAKAAL-NH2]	380 µg/mL
VALALKALKKL-NH2 [P180]	760 µg/mL
FAKLLAKKLL-NH2 [P57]	830 µg/mL
FAKLLFKALKKAL-NH2 [P112, FAKLLFKALKKAL-NH2]	660 µg/mL
FAKLA-NH2 [P128, FAKLA-NH2]	700 µg/mL
FAKLLAKLAKKFAL-NH2 [P120, FAKLLAKLAKKFAL-NH2]	810 µg/mL
FALALKLAKKL-NH2 [P178]	> (> indicates greater than 1000)

Tested on: MCF7
Assay: Anti-cancer assay, MTT, LD50
Format: cell-based
Conditions: MCF7 breast adenocarcinoma line, MTT, 24 hours with peptide
Source text: as §1

Substance	LD50 MCF7
FAKLLAKLAKKSL-NH2 [P127]	440 µg/mL
FAKKLAKKLAKAAL-NH2 [P76, FAKKLAKKLAKAAL-NH2]	970 µg/mL
VALALKALKKL-NH2 [P180]	950 µg/mL
FAKLLAKKLL-NH2 [P57]	> (> indicates greater than 1000)
FAKLLFKALKKAL-NH2 [P112, FAKLLFKALKKAL-NH2]	500 µg/mL
FAKLA-NH2 [P128, FAKLA-NH2]	500 µg/mL
FAKLLAKLAKKFAL-NH2 [P120, FAKLLAKLAKKFAL-NH2]	730 µg/mL
FALALKLAKKL-NH2 [P178]	770 µg/mL

Tested on: PC3
Assay: Anti-cancer assay, MTT, LD50
Format: cell-based
Conditions: 24 hours with peptide, prostate adenocarcinoma
Source text: as §1

Substance	PC3 LD50
FAKLLAKLAKKSL-NH2 [P127]	> (> indicates greater than 1000)
FAKKLAKKLAKAAL-NH2 [P76, FAKKLAKKLAKAAL-NH2]	675 µg/mL
VALALKALKKL-NH2 [P180]	> (> indicates greater than 1000)
FAKLLAKKLL-NH2 [P57]	> (> indicates greater than 1000)
FAKLLFKALKKAL-NH2 [P112, FAKLLFKALKKAL-NH2]	640 µg/mL
FAKLA-NH2 [P128, FAKLA-NH2]	> (> indicates greater than 1000)
FAKLLAKLAKKFAL-NH2 [P120, FAKLLAKLAKKFAL-NH2]	> (> indicates greater than 1000)
FALALKLAKKL-NH2 [P178]	> (> indicates greater than 1000)

Tested on: SW480
Assay: Anti-cancer assay, MTT, LD50
Format: cell-based
Conditions: SW480 colon adenocarcinoma line, 24 hours with peptide
Source text: as §1

Substance	LD50 SW480
FAKLLAKLAKKSL-NH2 [P127]	400 µg/mL
FAKKLAKKLAKAAL-NH2 [P76, FAKKLAKKLAKAAL-NH2]	400 µg/mL
VALALKALKKL-NH2 [P180]	600 µg/mL
FAKLLAKKLL-NH2 [P57]	740 µg/mL
FAKLLFKALKKAL-NH2 [P112, FAKLLFKALKKAL-NH2]	800 µg/mL
FAKLA-NH2 [P128, FAKLA-NH2]	530 µg/mL
FAKLLAKLAKKFAL-NH2 [P120, FAKLLAKLAKKFAL-NH2]	630 µg/mL
FALALKLAKKL-NH2 [P178]	> (> indicates greater than 1000)

Tested on: human red blood cells (RBC)
Assay: in vitro
Format: cell-based
Conditions: hemolytic assay, concentration at 50% hemolysis, 1 hour at 37° C.

Substance	LD50
FAKLLAKLAKKSL-NH2 [P127]	> (> indicates greater than 1000)
FAKKLAKKLAKAAL-NH2 [P76, FAKKLAKKLAKAAL-NH2]	> (> indicates greater than 1000)
VALALKALKKL-NH2 [P180]	> (> indicates greater than 1000)
FAKLLAKKLL-NH2 [P57]	> (> indicates greater than 1000)
FAKLLFKALKKAL-NH2 [P112, FAKLLFKALKKAL-NH2]	> (> indicates greater than 1000)
FAKLA-NH2 [P128, FAKLA-NH2]	> (> indicates greater than 1000)
FAKLLAKLAKKFAL-NH2 [P120, FAKLLAKLAKKFAL-NH2]	> (> indicates greater than 1000)
FALALKLAKKL-NH2 [P178]	> (> indicates greater than 1000)

Tested on: WI38
Assay: not given
Conditions: MTT, 24 hours with peptide; normal fibroblast line

Substance	WI38 LD50
FAKLLAKLAKKSL-NH2 [P127]	760 µg/mL
FAKKLAKKLAKAAL-NH2 [P76, FAKKLAKKLAKAAL-NH2]	445 µg/mL
VALALKALKKL-NH2 [P180]	940 µg/mL
FAKLLAKKLL-NH2 [P57]	900 µg/mL
FAKLLFKALKKAL-NH2 [P112, FAKLLFKALKKAL-NH2]	420 µg/mL
FAKLA-NH2 [P128, FAKLA-NH2]	500 µg/mL
FAKLLAKLAKKFAL-NH2 [P120, FAKLLAKLAKKFAL-NH2]	600 µg/mL
FALALKLAKKL-NH2 [P178]	405 µg/mL

Tested on: not listed separately
Assay: in vitro
Conditions: human, WI38 normal lung fibroblast cells, LD50 WI38, WI38 normal lung fibroblast line, MTT, 24 hours with peptide

Substance	CC50 at 24 h
FAKLLAKLAKKSL-NH2 [P127]	760 µg/mL
FAKKLAKKLAKAAL-NH2 [P76, FAKKLAKKLAKAAL-NH2]	445 µg/mL
VALALKALKKL-NH2 [P180]	940 µg/mL
FAKLLAKKLL-NH2 [P57]	900 µg/mL
FAKLLFKALKKAL-NH2 [P112, FAKLLFKALKKAL-NH2]	420 µg/mL
FAKLA-NH2 [P128, FAKLA-NH2]	500 µg/mL
FAKLLAKLAKKFAL-NH2 [P120, FAKLLAKLAKKFAL-NH2]	600 µg/mL
FALALKLAKKL-NH2 [P178]	405 µg/mL

— patent publication US20050209157A1, “Short bioactive peptides and methods for their use” (priority 2001, published 2005)
